Key:
TNFα and TNF-R = TNFα and TNF-R (Homo sapiens, UniProt P01375); assay: LC-MS analysis of size exclusion fractions of TNFα, TNF-R and compound; type: binding; conditions: compound added before or after TNFα/TNF-R complex formation
Description: Fractions from size exclusion chromatographic separation of mixtures of TNFα, TNF-R and the compound of formula (1) were analysed by liquid chromatography-mass spectrometry (LC-MS). Two samples were prepared for size exclusion chromatography.

[1] = system: TNFα-induced IL-8 production; assay: Inhibition of TNFα-induced IL-8 production in human monocytes; type: cell-based; conditions: Monocyte, 18 h
Description: Venous blood from healthy donors was collected by venupuncture into sodium/heparin containing tubes (BD Biosciences). Peripheral blood mononuclear cells (PBMC) were isolated by density gradient centrifugation with Ficoll Paque (Amersham Biosciences). Briefly, 10 mL of blood was diluted 1:1 (v/v) with RPMI 1640 (Gibco) and carefully layered onto 20 mL Ficoll Paque. Cells were spun down for 30 minutes (min) at 470 g, the PBMC collected, washed once in RPMI 1640 and any remaining contaminating erythrocytes lysed in erythrocyte lysis buffer (1 g/L KHCO3, 8.3 g/L NH4Cl, 0.0372 g/L EDTA). Isolation of monocytes from the PBMC was performed using CD14+ Magnetic MicroBeads (Miltenyi Biotec) according to the manufacturer's instructions. Briefly, PBMC were resuspended in Dulbecco's modified Eagle's medium containing 5% BSA (Sigma) and 2 mM EDTA (Sigma) at 1×10^7 cells/ml. 25 μL of CD14 MicroBeads per 10^7 total cells were incubated for 15 min at room temperature. The magnetic separation was performed using a LS column (Miltenyi Biotec). […]
Human IL-8 was measured in the cell culture supernatants using enzyme-linked immunosorbent assay (ELISA) kits from R&D Systems Ltd. according to the manufacturer's instructions. […] Plates were read at a wavelength of 630 nm with correction at 470 nm.

CD40L = molecular target: T1, CD40L (Homo sapiens, UniProt P29965); assay: Mass spectrometric analysis of CD40L trimer stabilisation; type: binding; conditions: in the presence of DMSO
T1 sequence (P29965 113-261 limits assumed): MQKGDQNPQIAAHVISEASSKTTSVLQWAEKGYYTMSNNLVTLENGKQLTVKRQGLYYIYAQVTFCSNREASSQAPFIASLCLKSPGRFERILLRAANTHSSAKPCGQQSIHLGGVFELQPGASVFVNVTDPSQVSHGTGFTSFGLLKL
From the text: Mass spectrometric analysis has shown that CD40L, which also forms homotrimers, is destabilised by DMSO, resulting in a reduced amount of the trimeric CD40L. The assay protocol used was the same as that described in Example 3 for TNFα, but using CD40L instead.

[2] = system: activation of NF-κB by IL-1β; assay: HEK-293 NF-κB SEAP reporter gene assay, IL-1β counterscreen; type: cell-based; conditions: Homo sapiens, HEK293; HEK-293 reporter cells, IL-1β 0.5 ng/ml
Description: Stimulation of HEK-293 cells by TNF-alpha leads to activation of the NF-kB pathway. The reporter cell line used to determine TNF alpha activity was purchased from Invivogen. HEK-Blue™ CD40L, is a stable transfectant expressing SEAP (secreted alkaline phosphatase) under the control of the IFN-beta minimal promoter fused to 5 NF-kB binding sites. Secretion of SEAP by these cells is stimulated in a concentration dependent manner by TNF-alpha (0.5 ng/ml), IL-1-beta (0.5 ng/ml) and an activating anti-human TNFR1 antibody (300 ng/ml).
Compounds were diluted from 10 mM DMSO stocks (final assay concentration 0.3%) to generate a 10 point 3 fold serial dilution curve (30,000 nM to 2 nM final concentration). They were mixed with stimulating ligand for 1 hour in a 384 well microtitre plate. Freshly thawed and washed cells were added to the compound/stimulus mixture and further incubated for 18 hours. SEAP activity was determined in the supernatant using the colorimetric substrate Quanti-Blue™ (Invivogen).
Percentage inhibitions for compound dilutions were calculated between a DMSO control and maximum inhibition (by excess control compound) and an IC50 calculated using xlfit (4 parameter logistic model) in Activity Base.
The specific activity of each compound against the TNF-alpha response was compared to that seen with the counterscreens (IL-1beta and anti-human TNFR1 antibody).

Chain of TNFα and TNF-R (P01375 77-233 limits assumed): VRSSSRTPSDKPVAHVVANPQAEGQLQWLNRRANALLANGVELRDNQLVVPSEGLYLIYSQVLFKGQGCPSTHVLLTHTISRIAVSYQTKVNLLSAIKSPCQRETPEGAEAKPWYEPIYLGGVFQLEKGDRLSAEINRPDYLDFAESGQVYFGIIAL
Chain of TNFα and TNF-R (P19438 30-211 partner limits assumed): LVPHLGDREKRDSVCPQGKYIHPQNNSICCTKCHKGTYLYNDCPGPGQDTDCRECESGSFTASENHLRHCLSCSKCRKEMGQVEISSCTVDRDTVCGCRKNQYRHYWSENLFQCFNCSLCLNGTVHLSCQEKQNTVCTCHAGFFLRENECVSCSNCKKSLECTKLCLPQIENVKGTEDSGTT

SMILES | binding to TNFα in the presence of TNF-R (TNFα and TNF-R) | IC50 [1] | stabilisation of trimeric CD40L (CD40L) | IC50 [2]
Cc1ccc(C)c(Cn2c(C(O)c3ccncc3)nc3ccccc32)c1 (stereo not shown) [Compound (1), [1-(2,5-Dimethylbenzyl)-1H-benzimidazol-2-yl](pyridin-4-yl)methanol] | binds to TNFα even in the presence of TNF-R | 454 nM | stabilise trimeric CD40L | –
Cc1ccc(C)c(Cn2c(C(O)c3ccncc3)nc3ccc(-c4cnn(C)c4)cc32)c1 (stereo not shown) [Compound (2), [1-(2,5-Dimethylbenzyl)-6-(1-methyl-1H-pyrazol-4-yl)-1H-benzimidazol-2-yl](pyridin-4-yl)methanol] | – | – | – | > 30 µM

From US10705094B2, “TNF receptor signaling modulator assay” (UCB Biopharma SRL, priority 2015, dated 2020)
